Laboratory results taken from publication PMC10290391, “Targeted degradation of ⍺-synuclein aggregates in Parkinson’s disease using the AUTOTAC technology” (Molecular Neurodegeneration, 2023).
Values joined by “and” are separate entries in the source; they are usually repeats but may differ in a detail not shown here. Identical values can stand only once. “Also recorded” adds a separate entry of the source.

Key:
[1] = tested on: high molecular weight α-syn aggregates; test: Dot blot / filter trap assay for α-syn aggregates in differentiated SH-SY5Y α-syn A53T cells; type: cell-based, human; settings: 100 nM, 24 h; 450 nm filter
Method: Differentiated SH-SY5Y α-syn A53T cells were treated with 2 μg/ml of a-syn PFFs, and after 24 h cells were treated with 100 nM of ATC161 for 24 h. The cells were lysed in RIPA buffer for 30 min on ice and then centrifuged at 13,000 rpm for 20 min at 4 ℃. The supernatants were aspirated and transferred into a new tube kept on ice. Protein concentration was determined by a BCA assay. The filter trap assay was performed with 5 μg of total protein diluted in 100 μL of lysate. A nitrocellulose membrane (pore size: 0.45 μm) was placed on the filter trap apparatus (96-well Bio-Dot®). Lysates were loaded and allowed to pass through the membrane under vacuum. Aggregated α-syn levels were determined by immunoblotting using an anti-α-syn aggregate antibody [MJFF-14–6-4–2] (1:2000; Abcam, ab209538).

α-syn aggregates = test: Triton X-100 fractionation assay in SH-SY5Y α-syn A53T cells transduced with α-syn PFFs; type: cell-based, human
Method: Recombinant human α-syn (1–140) were obtained from NKMAX (SNA2001L). In vitro fibrillization was performed by diluting recombinant α-syn monomers to 1 mg/mL in sterile PBS, then incubating at 37 °C with constant agitation at 1,000 rpm for seven days. The fibrillization was verified by thioflavin T and sedimentation assays. The ability to form phospho-α-syn (S129) was also assessed by immunocytochemistry. In addition, to determine whether the generated PFFs act as seeds to accumulate endogenous α-syn, an adenovirus that expresses c-Myc-His-tagged human α-syn (gifted from lab of S.J.L) was used to infect cultured cells at an MOI of 10, followed by a fractionation assay. The administration of PFFs into 293A cells was done with protein delivery reagent (BioPORTER QuikEase Protein Delivery Kit, Sigma) following the provider’s instruction. The mouse α-syn PFFs were obtained from StressMarq (SPR-324). […]
(§1) For the separation of Triton X-100 soluble and insoluble fractions for monitoring α-syn, cells were washed with PBS and lysed in Triton X-100 buffer (50 mM Tris / 150 mM NaCl / 100 mM EDTA / 1% Triton X-100, pH 7.6) containing protease and phosphatase inhibitors for 30 min on ice. […] Immunoreactive bands were detected using ECL reagents (Thermo Fisher Scientific, 32,106). […] Densitometry of developed bands was analyzed with ImageJ (NIH, Bethesda).

insoluble α-syn species = test: Triton X-100 fractionation assay in primary rat cortex neurons; type: cell-based
Method: All procedures were conducted according to the IACUC and were approved by Seoul National University Institutional Animal Care and Use Committee. Rat cortex primary neuron were prepared from E16 Sprague–Dawley rat embryos (Orient Bio). Anesthetized […] were sacrificed by cervical dislocation, and embryos were removed. Cortices were dissected on the ice. Neurons were trypsinized, dissociated and plated onto poly-d-lysine coated cover slips at a density of 5 × 10^4 cells per cm^2 per 12-well plate or 6-well plate. Primary neurons were maintained in Neurobasal A medium containing 2% B27, 0.5 mM glutamax and antibiotics. Cells at 7 DIV were treated with h-α-syn PFF (1 µg/mL) for 14 d.
as §1, with “ice. The lysates were centrifuged at 12,000 rpm for 30 min, and the soluble supernatant was taken. The remaining pellets were washed with Triton X-100 buffer, followed by centrifugation at 12,000 rpm for 20 min.” for “ice.”

p62 and α-syn aggregates = target: T1, p62 and α-syn aggregates (Homo sapiens, UniProt P37840+Q13501); test: Proximity ligation assay (PLA) of p62 and α-syn in HEK293A cells; type: cell-based; settings: 1 μM, 6 h
T1 construct: Recombinant human α-syn (1–140) were obtained from NKMAX (SNA2001L); endogenous in cells; host or cells: HEK293A cells transduced with h-α-syn PFFs
Method: Proximity ligation assays were conducted using a PLA kit (Sigma-Aldrich) according to the manufacturer’s protocol. 293A Cells were seeded on coverslips and cultured for 24 h. After fixation with 4% PFA, the cells were permeabilized with 0.1% Triton X-100. The cells were incubated with antibodies for p62 (Abcam; ab56319) and alpha-synuclein aggregates (Abcam; ab209538) overnight at 4 °C. After washing with PLA washing buffer, the cells were hybridized, ligated and amplified by rolling circle. Coverslips were mounted on slides using mounting medium containing DAPI, and the images were captured by confocal microscopy (Zeiss).

Fc1ccc(COc2cccc(CNCCOCCOCCNc3cccc(-c4cc(-c5ccc6c(c5)OCO6)n[nH]4)c3)c2)cc1 [ATC161, 3-(3-(benzo[d][1,3]dioxol-5-yl)-1H-pyrazol-5-yl)-N-(2-(2-(2-((3-((4-fluorobenzyl)oxy)benzyl)amino)ethoxy)ethoxy)ethyl)aniline]
degradation of high molecular weight α-syn aggregates [1]: induced the degradation of high molecular weight α-syn aggregates | DC50 (α-syn aggregates; Triton X-100 insoluble fraction, read-out: half degradation concentration (DC50) of α-syn aggregates): ~0.1 µM and 0.1 µM | degradation of monomeric α-syn (α-syn aggregates; soluble fraction): No apparent degradation; also recorded: no such degradation was observed | concentration of lysosomal degradation of aggregates (insoluble α-syn species; PD model cells (discussion)): 10 nM | concentration from which insoluble α-syn species are targeted (insoluble α-syn species; primary rat cortex neurons, soluble monomeric form intact): 10 nM | PLA+ signals of p62 with α-syn monomers (p62 and α-syn aggregates; cells transduced with α-syn monomers): failed to induce PLA^+ signals | interaction between p62 and α-syn aggregates (PLA puncta) (p62 and α-syn aggregates; α-syn PFF-transduced cells): dramatically increased the number and sizes of PLA puncta
